Data taken from paper PMC5077990, “P53 activation inhibits all types of hematopoietic progenitors and all stages of megakaryopoiesis” (Oncotarget, 2016).
Like-named read-outs stand apart in the source and are kept apart here.

What was measured:
Format in all cases: cell-based, human
[1] = tested on: CFU-GM (Colony Forming Unit-Granulocyte Macrophage) progenitors from CD34+ cells; assay: Colony assay in methylcellulose, CFU-GM; conditions: Homo sapiens, CFU-GM
Method: CD34^+cells were obtained from leukapheresis samples after mobilization of donors after informed consent in agreement with our Institute Ethic Committee (Assistance Publique des Hôpitaux de Paris) and in accordance with the Declaration of Helsinki. CD34^+cells were isolated by a positive selection using an immunomagnetic cell sorting system (AutoMacs; Miltenyi Biotec, Bergisch Gladbach, Germany). 500 to 1000 normal CD34^+cells were plated either in 1% methylcellulose assay (StemCells technologies, Vancouver, Canada) to quantify erythroid (BFU-E) and granulo-monocytic (CFU-GM) progenitors or in serum-free fibrin clot assay for quantification of MK progenitors (CFU-MK) in the absence or presence of various concentration of SAR405838 or MI-219. Cultures in methylcellulose were stimulated by addition of human recombinant growth factors: G-CSF (20 ng/mL), IL-3 (10 ng/mL) SCF (25 ng/mL, Biovitrum AB, Stockholm, Sweden), IL-6 (10 ng/mL), FLT3 (10 ng/mL) and human EPO (1 U/mL). Cultures in fibrin clot were stimulated with 10 ng/mL TPO (Kirin Brewery, Tokyo, Japan) and 25 ng/mL SCF. […] CFU-MK colonies were enumerated at day 12 after labeling by an indirect immuno-alkaline phosphatase staining technique using an anti-CD41a monoclonal antibody (MoAb; Becton Dickinson, le Pont de Claix, France; clone HIP8), as previously described.

[2] = tested on: CFU-MK (Colony Forming Unit-Megakaryocyte) progenitors from CD34+ cells; assay: Colony assay in fibrin clot, CFU-MK; conditions: Homo sapiens
Method: CD34^+cells were obtained from leukapheresis samples after mobilization of donors after informed consent in agreement with our Institute Ethic Committee (Assistance Publique des Hôpitaux de Paris) and in accordance with the Declaration of Helsinki. CD34^+cells were isolated by a positive selection using an immunomagnetic cell sorting system (AutoMacs; Miltenyi Biotec, Bergisch Gladbach, Germany). 500 to 1000 normal CD34^+cells were plated either in 1% methylcellulose assay (StemCells technologies, Vancouver, Canada) to quantify erythroid (BFU-E) and granulo-monocytic (CFU-GM) progenitors or in serum-free fibrin clot assay for quantification of MK progenitors (CFU-MK) in the absence or presence of various concentration of SAR405838 or MI-219. Cultures in methylcellulose were stimulated by addition of human recombinant growth factors: G-CSF (20 ng/mL), IL-3 (10 ng/mL) SCF (25 ng/mL, Biovitrum AB, Stockholm, Sweden), IL-6 (10 ng/mL), FLT3 (10 ng/mL) and human EPO (1 U/mL). Cultures in fibrin clot were stimulated with 10 ng/mL TPO (Kirin Brewery, Tokyo, Japan) and 25 ng/mL SCF. BFU-E and CFU-GM colonies were enumerated at day 14 of culture. […]

Day 8-erythroblasts = assay: Apoptosis of erythroblasts, Annexin V flow cytometry; conditions: 48 hour treatment, as low as 0.5 μM
Method: For that purpose, CD34^+ progenitors were cultured in serum-free medium with SCF and EPO for 8 days. […] Day 8-erythroblasts were treated with various doses of SAR405838 or MI-219 for 48 hours. The viable cells were counted by Trypan blue exclusion and the apoptotic cells were quantified by flow cytometry analysis using annexin V/ propidium iodide labeling.
B. Day 8-erythroblasts were treated with various doses of MI-219 or SAR405838 for 48 hours and counted by trypan blue exclusion. C. Day 8-erythroblasts were treated with various doses of MI-219 or SAR405838 for 48 hours and apoptotic cells were analyzed by flow cytometry using Annexin V assay. The results represent the mean of 3 independent experiments. * represents statistical significance (*P<0.05; **P<0.01; ***P<0.001).
Apoptosis was measured by Annexin V-FITC detection kit (BD Pharmigen, San Diego, CA) and analyzed by flow cytometry on a LSRII (Becton Dickinson Mountain View, CA).

Day 6-megakaryoblasts = assay: Viability of day 6-megakaryoblasts; conditions: 0.5 μM, 72 hours
Method: We also explored the effects of p53 stabilization at a later stage of megakaryocytic differentiation. […] Day 7-MKs were treated with 5 μM Nutlin 3a for 24 or 48 hours, which led to an increase in p53, p21, BAX, BCL2 and BCL-XL levels, confirming a functional p53 activity (Figure 6A). […] Similar results were found with day 6-megakaryoblasts treated with two doses of SAR405838 for 72 hours (Figure 6D/6E) without any major effect on the percentage of CD41^+ cells (Figure 6F). […] As shown in Figure 6D/6E, at the dose of 0.5 μM the SAR405838 induced a 50% decreased in the number of viable cells while the apoptotic cells reached 50% of the total cells. We checked if the effect of SAR405838 on MKs could be reverted by the addition of high TPO doses. CD34^+ progenitors were cultured in serum-free medium supplemented with SCF and low dose of TPO (1 ng/mL) for 6 days. Day 6-megakaryoblasts were then treated with 1.5 μM of SAR405838 for 48 hours and various doses of TPO.
In parallel, the expression of P53, BAK, BCL2L1, NOXA, PUMA, BAX, P21 and P53 were quantified by qRT-PCR related to HPRT. C. […] (n=3). D, E, F. Day 6-megakaryoblasts were exposed to MI-219 or SAR405838 (0.5 or 1 μM for 72 hours) and cell viability (D), apoptosis (E) or CD41 expression (F) were investigated. […] One representative experiment (n= 2). […]

## CC(C)(C)C[C@@H]1N[C@@H](C(=O)N[C@H]2CC[C@H](O)CC2)[C@H](c2cccc(Cl)c2F)[C@]12C(=O)Nc1cc(Cl)ccc12 [SAR405838]
[1]; 72 h, CD34+ cells treated 3 days, washed, then plated in colony assay, read-out: IC50, reduction of CFU-GM progenitors
  IC50: ~2000 nM
[1]; CD34+ cells seeded in methylcellulose in the presence of compound, compared to untreated control, read-out: dose inducing a 50% reduction of CFU-GM numbers
  IC50: 500 to 1000 nM
[2]; 72 h, CD34+ cells treated 3 days, washed, then plated in colony assay, read-out: IC50, reduction of CFU-MK progenitors
  IC50: ~2000 nM
[2]; CD34+ cells seeded in fibrin clot in the presence of compound, compared to untreated control, read-out: dose inducing a 50% reduction of CFU-MK numbers
  IC50: 500 to 1000 nM
Day 8-erythroblasts
  apoptotic cells (annexin V/propidium iodide): increased in a dose-dependent manner
Day 6-megakaryoblasts
  decrease in the number of viable cells: 50%
